From patent publication US20150292030A1, “METHODS OF CHARACTERIZING AND TREATING MOLECULAR SUBSET OF MUSCLE-INVASIVE BLADDER CANCER” (BOARD OF REGENTS, THE UNIVERSITY OF TEXAS SYSTEM, priority 2012, published 2015) come the findings set out here.

Each structure is given as a SMILES string.

Experiment [1] deals with human bladder cancer cell lines. Briefly: Proliferation (MTT) assay of BGJ398 on a panel of 30 human bladder cancer cell lines. Type of experiment: cell-based. Particulars: lines SW780, UC1, RT112, RT4 and UC14; FIG. 6. An excerpt: FIG. 6. Proliferation (MTT) assay testing effect of BGJ398 on human bladder cancer cell lines.
To test this possibility, the inventors examined the effects of the FGFR-selective inhibitor BGJ398 on proliferation in the inventor's panel of 30 human bladder cancer cell lines using MTT assays.

For experiment [2], the system named is muscle-invasive bladder cancer. Briefly: Pathological response to neoadjuvant chemotherapy at cystectomy by cluster, discovery cohort. Particulars: cluster 2 (p53-like); FIG. 1D. It is filed as in vivo, human. An excerpt:
Tumors and clinical data were obtained from the MD Anderson genitourinary cancers research database. Fresh frozen tissues were obtained from the SPORE Tissue Core. Of note, all patients had previously signed informed consent allowing collection of their tissue and of their clinical data in the genitourinary research database. […] Patients were classified as muscle invasive for tumor growth into the muscularis propria; otherwise, they were classified as non-muscle invasive. Total RNA from human specimens were isolated using mirVana miRNA isolation kit (Ambion, Inc).
Presurgical (neoadjuvant) cisplatin-based chemotherapy is the current standard-of-care for high-risk muscle-invasive bladder cancer. […] To examine the relationship between the 3 molecular subsets and chemotherapy sensitivity, the inventors identified 18 patients within their discovery cohort that had received neoadjuvant chemotherapy and compared the pathological response rates within each cluster. Strikingly, whereas over half of the basal/cluster 1 (3/5) and luminal/cluster 3 (4/6) tumors responded to chemotherapy, none (0/7) of the p53-like cluster 2 tumors was downstaged in this initial cohort (Table 3). […] Gene expression profiling classified 3 of the tumors as basal, 4 as luminal, and 9 as p53-like (FIG. 7). […]

In the case of `CCN1CCN(c2ccc(Nc3cc(N(C)C(=O)Nc4c(Cl)c(OC)cc(OC)c4Cl)ncn3)cc2)CC1` [BGJ398], the “drug sensitivity of proliferation (MTT)” value in experiment [1] is “most drug-sensitive”.
Regarding `N.N.[Cl][Pt][Cl]` [cisplatin], the observed cisplatin resistance result in experiment [2] is reported as “resistance”.
